Literature values as cited in patent US10335381B2, “Stabilized formulation of triamcinolone acetonide” (University of Mississippi, priority 2006, dated 2019).

Details: Gupta 1983

SMILES: CC1(C)O[C@@H]2C[C@H]3[C@@H]4CCC5=CC(=O)C=C[C@]5(C)[C@@]4(F)[C@@H](O)C[C@]3(C)[C@]2(C(=O)CO)O1 [TAA, triamcinolone acetonide]
- optimum pH for TAA stability in aqueous solution: about 3.4
